Measurements reported in BindingDB's records for doi:10.1021/acs.jmedchem.0c00546 (University of Tennessee, 2020).

Target: T1, Dihydrofolate reductase (Homo sapiens, UniProt P00374)
T1 sequence (P00374 whole entry): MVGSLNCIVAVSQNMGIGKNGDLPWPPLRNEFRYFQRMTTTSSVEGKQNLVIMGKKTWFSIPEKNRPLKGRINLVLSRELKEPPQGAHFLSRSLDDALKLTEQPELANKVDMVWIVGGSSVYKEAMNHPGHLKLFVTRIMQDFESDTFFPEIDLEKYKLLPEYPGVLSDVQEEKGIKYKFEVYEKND
Assay: Inhibition of human DHFR in presence of DHF and NADPH by UV-vis spectrometry by Lineweaver-Burk plot analysis

Ki [µM] | SMILES
880 | N[C@H](Cc1c[nH]c2ccccc12)C(=O)O [(2R)-2-amino-3-(1H-indol-3-yl)propanoic acid]
180 | Nc1ccnc(N)n1 [Diaminopyrimidine]
